{"source": "ChEMBL document CHEMBL5321216", "about": "“Discovery of bipyridine amide derivatives targeting pRXRα-PLK1 interaction for anticancer therapy” (Eur J Med Chem, 2023)", "key": {"[1]": {"assay": "Toxicity in BALB/c mouse xenografted with human MDA-MB-231 cells assessed as kidney damage at 25 mg/kg/day, ip administered for 15 days by H and E staining based analysis", "assay_type": "organism-based", "conditions": "in vivo, 360 h, time 15 day"}, "MDA-MB-231 [2]": {"tested_on": "MDA-MB-231", "assay": "Induction of apoptosis in human MDA-MB-231 cells assessed as live cells at 250 nM incubated for 24 hrs by annexin V-FITC/PI staining based flow cytometry analysis (reference value: 91.3%)", "assay_type": "functional"}, "MDA-MB-231 [3]": {"tested_on": "MDA-MB-231", "assay": "Antitumor activity against human MDA-MB-231 cells xenografted in BALB/c nude mouse assessed as inhibition of tumor growth by measuring chromosome aberrations at 12.5 to 25 mg/kg/day, ip administered for 15 days", "assay_type": "functional, organism-based", "conditions": "dose 12.5-25 mg/kg/day, time 15.0 day"}, "[4]": {"assay": "Selectivity index, ratio of IC50 for human HepG2 cells to IC50 for human MDA-MB-231 cells", "assay_type": "functional"}, "MDA-MB-231 [5]": {"tested_on": "MDA-MB-231", "assay": "Induction of apoptosis in human MDA-MB-231 cells assessed as dead cells at 62.5 nM incubated for 24 hrs by annexin V-FITC/PI staining based flow cytometry analysis (reference value: 0.69%)", "assay_type": "functional"}, "A549 [6]": {"tested_on": "A549", "assay": "Induction of cell cycle arrest in human A549 cells assessed as accumulation of cells at S phase at 31.25 nM incubated for 12 hrs by flow cytometry analysis (reference value: 31.81%)", "assay_type": "functional"}, "A549 [7]": {"tested_on": "A549", "assay": "Induction of apoptosis in human A549 cells assessed as late apoptotic cells at 62.5 nM incubated for 24 hrs by annexin V-FITC/PI staining based flow cytometry analysis (reference value: 5.28%)", "assay_type": "functional"}, "A549 [8]": {"tested_on": "A549", "assay": "Induction of cell cycle arrest in human A549 cells assessed as accumulation of cells at S phase at 62.5 nM incubated for 12 hrs by flow cytometry analysis (reference value: 31.81%)", "assay_type": "functional"}, "A549 [9]": {"tested_on": "A549", "assay": "Induction of cell cycle arrest in wild type human A549 cells assessed as accumulation of cells at G1 phase at 125 nM incubated for 12 hrs by DAPI staining based flow cytometry analysis (reference value: 36.89 %)", "assay_type": "functional"}, "HepG2": {"tested_on": "HepG2", "assay": "Antiproliferative activity against human HepG2 cells assessed as cell viability rate at 5 uM incubated for 72 hrs by MTT assay relative to control", "assay_type": "functional"}, "MDA-MB-231 [10]": {"tested_on": "MDA-MB-231", "assay": "Induction of apoptosis in human MDA-MB-231 cells assessed as late apoptotic cells at 62.5 nM incubated for 24 hrs by annexin V-FITC/PI staining based flow cytometry analysis (reference value: 5.93%)", "assay_type": "functional"}, "A549 [11]": {"tested_on": "A549", "assay": "Induction of apoptosis in human A549 cells assessed as live cells at 62.5 nM incubated for 24 hrs by annexin V-FITC/PI staining based flow cytometry analysis (reference value: 93.2%)", "assay_type": "functional"}, "MDA-MB-231 [12]": {"tested_on": "MDA-MB-231", "assay": "Inhibition of colony formation in human MDA-MB-231 cells incubated for 48 hrs followed by replacement with normal culture medium and measured after […] by crystal violet staining based assay", "assay_type": "functional, cell-based", "conditions": "dose 0.976-250 nM"}, "MDA-MB-231 [13]": {"tested_on": "MDA-MB-231", "assay": "Antitumor activity against human MDA-MB-231 cells xenografted in BALB/c nude mouse assessed as reduction in RXRalpha protein expression at 25 mg/kg/day, ip administered for 15 days by immunohistochemical analysis", "assay_type": "functional, organism-based", "conditions": "time 15.0 day"}, "A549 [14]": {"tested_on": "A549", "assay": "Induction of apoptosis in human A549 cells assessed as early apoptotic cells at 31.25 nM incubated for 24 hrs by annexin V-FITC/PI staining based flow cytometry analysis (reference value: 0.78%)", "assay_type": "functional"}, "A549 [15]": {"tested_on": "A549", "assay": "Induction of cell cycle arrest in human A549 cells assessed as accumulation of cells at G2 phase at 15.625 nM incubated for 12 hrs by flow cytometry analysis (reference value: 8.62%)", "assay_type": "functional", "conditions": "0.01562 µM"}, "A549 [16]": {"tested_on": "A549", "assay": "Induction of apoptosis in human A549 cells assessed as live cells at 125 nM incubated for 24 hrs by annexin V-FITC/PI staining based flow cytometry analysis (reference value: 93.2%)", "assay_type": "functional"}, "MDA-MB-231 [17]": {"tested_on": "MDA-MB-231", "assay": "Induction of cell cycle arrest in human MDA-MB-231 cells assessed as accumulation of cells at S phase at 125 nM incubated for 12 hrs by flow cytometry analysis (reference value: 40.89%)", "assay_type": "functional"}, "A549 [18]": {"tested_on": "A549", "assay": "Induction of cell cycle arrest in human A549 cells assessed as accumulation of cells at G2 phase at 31.25 nM incubated for 12 hrs by flow cytometry analysis (reference value: 8.62%)", "assay_type": "functional"}, "MDA-MB-231 [19]": {"tested_on": "MDA-MB-231", "assay": "Induction of apoptosis in human MDA-MB-231 cells assessed as early apoptotic cells at 250 nM incubated for 24 hrs by annexin V-FITC/PI staining based flow cytometry analysis (reference value: 2.03%)", "assay_type": "functional"}, "[20]": {"assay": "Toxicity in BALB/c mouse xenografted with human MDA-MB-231 cells assessed as lung damage at 25 mg/kg/day, ip administered for 15 days by H and E staining based analysis", "assay_type": "organism-based", "conditions": "in vivo, 360 h, time 15 day"}, "[21]": {"assay": "Toxicity in BALB/c mouse xenografted with human MDA-MB-231 cells assessed as heart damage at 25 mg/kg/day, ip administered for 15 days by H and E staining based analysis", "assay_type": "organism-based", "conditions": "in vivo, 360 h, time 15 day"}, "[22]": {"assay": "Toxicity in BALB/c mouse xenografted with human MDA-MB-231 cells assessed as liver damage at 25 mg/kg/day, ip administered for 15 days by H and E staining based analysis", "assay_type": "organism-based", "conditions": "in vivo, 360 h, time 15 day"}, "MDA-MB-231 [23]": {"tested_on": "MDA-MB-231", "assay": "Induction of apoptosis in human MDA-MB-231 cells assessed as reduction in Bcl-2 protein expression measured after 24 hrs by Western blot analysis", "assay_type": "functional, cell-based", "conditions": "dose 7.8-500 nM"}, "A549 [24]": {"tested_on": "A549", "assay": "Induction of apoptosis in human A549 cells assessed as late apoptotic cells at 31.25 nM incubated for 24 hrs by annexin V-FITC/PI staining based flow cytometry analysis (reference value: 5.28%)", "assay_type": "functional"}, "MDA-MB-231 [25]": {"tested_on": "MDA-MB-231", "assay": "Induction of apoptosis in human MDA-MB-231 cells assessed as late apoptotic cells at 250 nM incubated for 24 hrs by annexin V-FITC/PI staining based flow cytometry analysis (reference value: 5.93%)", "assay_type": "functional"}, "[26]": {"assay": "Apparent clearance during terminal phase in Sprague-Dawley rat at 25 mg/kg, ip measured for 48 hrs by LC-MS/MS analysis", "assay_type": "ADME, organism-based", "conditions": "in vivo, read-out: CLz/F (converted)"}, "A549 [27]": {"tested_on": "A549", "assay": "Antiproliferative activity against human A549 cells assessed as cell viability rate at 5 uM incubated for 72 hrs by MTT assay relative to control", "assay_type": "functional"}, "MDA-MB-231 [28]": {"tested_on": "MDA-MB-231", "assay": "Induction of apoptosis in human MDA-MB-231 cells assessed as early apoptotic cells at 125 nM incubated for 24 hrs by annexin V-FITC/PI staining based flow cytometry analysis (reference value: 2.03%)", "assay_type": "functional"}, "A549 [29]": {"tested_on": "A549", "assay": "Induction of cell cycle arrest in human A549 cells assessed as accumulation of cells at S phase at 125 nM incubated for 12 hrs by flow cytometry analysis (reference value: 31.81%)", "assay_type": "functional"}, "[30]": {"assay": "AUC (0 to infinity) in Sprague-Dawley rat at 25 mg/kg, ip measured for 48 hrs by LC-MS/MS analysis", "assay_type": "ADME, organism-based", "set-up": "time 48 hrs, dose 25 mg/kg, route ip", "conditions": "in vivo"}, "A549 [31]": {"tested_on": "A549", "assay": "Induction of cell cycle arrest in RXRalpha knockout human A549 cells assessed as accumulation of cells at S phase at 125 nM incubated for 12 hrs by DAPI staining based flow cytometry analysis (reference value: 32.74%)", "assay_type": "functional"}, "[32]": {"target": "Nuclear receptor subfamily 4immunitygroup A member 1 (Homo sapiens) (UniProt P22736)", "sequence (P22736 whole entry)": "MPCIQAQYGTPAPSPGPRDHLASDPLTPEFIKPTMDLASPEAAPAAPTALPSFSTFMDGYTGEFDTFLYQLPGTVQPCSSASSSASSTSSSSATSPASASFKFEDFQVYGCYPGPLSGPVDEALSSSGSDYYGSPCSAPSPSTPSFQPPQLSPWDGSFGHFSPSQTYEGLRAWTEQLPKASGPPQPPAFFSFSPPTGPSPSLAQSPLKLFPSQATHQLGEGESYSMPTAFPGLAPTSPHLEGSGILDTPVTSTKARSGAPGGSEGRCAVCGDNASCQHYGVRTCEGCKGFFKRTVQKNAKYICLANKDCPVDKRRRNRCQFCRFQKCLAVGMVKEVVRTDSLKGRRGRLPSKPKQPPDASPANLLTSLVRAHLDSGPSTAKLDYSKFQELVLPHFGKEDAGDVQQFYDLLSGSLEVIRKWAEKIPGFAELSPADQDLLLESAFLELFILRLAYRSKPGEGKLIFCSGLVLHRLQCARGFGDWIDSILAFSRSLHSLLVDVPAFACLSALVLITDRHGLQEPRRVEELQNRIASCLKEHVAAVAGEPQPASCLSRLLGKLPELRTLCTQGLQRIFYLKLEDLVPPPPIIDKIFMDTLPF", "assay": "Antagonist activity at Nur77 (unknown origin) transfected in human HeLa cells at 31.25 uM incubated for 24 hrs by dual luciferase reporter assay", "assay_type": "cell-based"}}, "note": "Activity calls are given as the source filed them. The rule behind the calls is not given here.", "data": [{"compound": "O=C(/C=C/c1ccccc1)Nc1cc(-c2ccnc(N3CCC(CO)CC3)c2)ccn1", "values": [{"measurement": "Activity", "setting": "[1]", "result": "Non-Toxic"}, {"measurement": "Activity", "setting": "MDA-MB-231 [2]", "result": 57.9, "unit": "%"}, {"measurement": "Activity", "setting": "MDA-MB-231 [3]", "result": "Active"}, {"measurement": "Ratio IC50", "setting": "[4]", "result": 4.81}, {"measurement": "Activity", "setting": "MDA-MB-231 [5]", "result": 2.47, "unit": "%"}, {"measurement": "Activity", "setting": "A549 [6]", "result": 32.4, "unit": "%"}, {"measurement": "Activity", "setting": "A549 [7]", "result": 18.2, "unit": "%"}, {"measurement": "Activity", "setting": "A549 [8]", "result": 27.68, "unit": "%"}, {"measurement": "Activity", "setting": "A549 [9]", "result": 2.24, "unit": "%"}, {"measurement": "Activity", "setting": "HepG2", "result": 42.38, "unit": "%"}, {"measurement": "Activity", "setting": "MDA-MB-231 [10]", "result": 15.2, "unit": "%"}, {"measurement": "Activity", "setting": "A549 [11]", "result": 67.7, "unit": "%"}, {"measurement": "inhibition", "setting": "MDA-MB-231 [12]", "result": "Dose-Dependent Effect"}, {"measurement": "Activity", "setting": "MDA-MB-231 [13]", "result": "Active"}, {"measurement": "Activity", "setting": "A549 [14]", "result": 6.28, "unit": "%"}, {"measurement": "Activity", "setting": "A549 [15]", "result": 8.95, "unit": "%"}, {"measurement": "Activity", "setting": "A549 [16]", "result": 52, "unit": "%"}, {"measurement": "Activity", "setting": "MDA-MB-231 [17]", "result": 14.05, "unit": "%"}, {"measurement": "Activity", "setting": "A549 [18]", "result": 8.76, "unit": "%"}, {"measurement": "Activity", "setting": "MDA-MB-231 [19]", "result": 20.2, "unit": "%"}, {"measurement": "Activity", "setting": "[20]", "result": "Non-Toxic"}, {"measurement": "Activity", "setting": "[21]", "result": "Non-Toxic"}, {"measurement": "Activity", "setting": "[22]", "result": "Non-Toxic"}, {"measurement": "Activity", "setting": "MDA-MB-231 [23]", "result": "Dose-Dependent Effect"}, {"measurement": "Activity", "setting": "A549 [24]", "result": 18.9, "unit": "%"}, {"measurement": "Activity", "setting": "MDA-MB-231 [25]", "result": 20.2, "unit": "%"}, {"measurement": "CL/F", "setting": "[26]", "result": 25.8, "unit": "mL/min/kg"}, {"measurement": "Activity", "setting": "A549 [27]", "result": 51.91, "unit": "%"}, {"measurement": "Activity", "setting": "MDA-MB-231 [28]", "result": 11.2, "unit": "%"}, {"measurement": "Activity", "setting": "A549 [29]", "result": 37.15, "unit": "%"}, {"measurement": "AUC(0-inf)", "setting": "[30]", "result": 14600, "unit": "ng·h/mL"}, {"measurement": "Activity", "setting": "A549 [31]", "result": 36.18, "unit": "%"}, {"measurement": "Activity", "setting": "[32]", "result": "inactive"}]}]}
